Earlier results on two molecules are cited in patent US20250381145A1, “COMBINATION OF SGLT2 INHIBITORS AND MINERALCORTICOID RECEPTOR MODULATORS FOR USE IN TREATMENT OF CARDIORENAL DISEASES” (ASTRAZENECA AB, priority 2022, published 2025).

With `CNC(=O)C[C@H]1COc2cc(F)ccc2N1C(=O)c1ccc2c(c1)NC(=O)CO2` [AZD9977, balcinrenone], the “solubility (BCS characterisation)” value is reported as “low”. For the molecule `CCOc1ccc(Cc2cc([C@@H]3O[C@H](CO)[C@@H](O)[C@H](O)[C@H]3O)ccc2Cl)cc1` [dapagliflozin], the “solubility (BCS characterisation)” value is reported as “high”.
